Results reported in ChEMBL document CHEMBL1201862, “PubChem BioAssay data set” (2004).
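A five-concentration, 48-hour dose response in 96-well plates underlies each endpoint, interpolated linearly between surrounding concentrations. Abbreviation: GI50, concentration required for 50% inhibition of growth.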 Activity calls are given as the source filed them. Cut-off read from the data, not from the text of the source: active = GI50 up to about 1.1 µM and inactive = higher.

Assays:
Experiment in all cases: NCI tumour cell line growth inhibition, 48 h
CAKI-1 = test system: CAKI-1
M14 = test system: M14
CCRF-CEM = test system: CCRF-CEM
NCI-H460 = test system: NCI-H460
K562 = test system: K562
SK-OV-3 = test system: SK-OV-3
TK-10 = test system: TK-10
UACC-62 = test system: UACC-62
HT-29 = test system: HT-29
Malme-3M = test system: Malme-3M
786-0 = test system: 786-0
A498 = test system: A498
MCF7 = test system: MCF7
IGROV-1 = test system: IGROV-1
HL-60 = test system: HL-60
SNB-19 = test system: SNB-19
HOP-62 = test system: HOP-62
EKVX = test system: EKVX
SF-539 = test system: SF-539
MDA-N = test system: MDA-N

Structure (SMILES)	GI50 (CAKI-1)	GI50 (M14)	GI50 (CCRF-CEM)	GI50 (NCI-H460)	GI50 (K562)	GI50 (SK-OV-3)	GI50 (TK-10)	GI50 (UACC-62)	GI50 (HT-29)	GI50 (Malme-3M)	GI50 (786-0)	GI50 (A498)	GI50 (MCF7)	GI50 (IGROV-1)	GI50 (HL-60)	GI50 (SNB-19)	GI50 (HOP-62)	GI50 (EKVX)	GI50 (SF-539)	GI50 (MDA-N)
Fc1ccc(NC(=S)SCc2ccc3c(c2)OCO3)cc1F	27.7 µM (inactive)	20.4 µM (inactive)	23.4 µM (inactive)	28 µM (inactive)	19.1 µM (inactive)	53.6 µM (inactive)	30.1 µM (inactive)	14.2 µM (inactive)	20.2 µM (inactive)	24.4 µM (inactive)	37.2 µM (inactive)	17.4 µM (inactive)	18.7 µM (inactive)	18.6 µM (inactive)	16.7 µM (inactive)	16.6 µM (inactive)	39.5 µM (inactive)	11.7 µM (inactive)	22.7 µM (inactive)	17.6 µM (inactive)
CCCCC[C@H]1CC=CC(=O)O1	2.55 µM (inactive)	11.5 µM (inactive)	4.74 µM (inactive)	5.35 µM (inactive)	5.48 µM (inactive)	10.8 µM (inactive)	9.48 µM (inactive)	10.5 µM (inactive)	4.03 µM (inactive)	15.5 µM (inactive)	3.1 µM (inactive)	1.82 µM (inactive)	4.89 µM (inactive)	5.27 µM (inactive)	2.88 µM (inactive)	10.1 µM (inactive)	17.3 µM (inactive)	17.1 µM (inactive)	1.56 µM (inactive)	5.02 µM (inactive)
CN(C)CCNc1ccc2nnn3c4ccccc4c(=O)c1c23	2.5 µM (inactive)	3.07 µM (inactive)	2.27 µM (inactive)	2.25 µM (inactive)	2.86 µM (inactive)	7.87 µM (inactive)	3.31 µM (inactive)	3.39 µM (inactive)	2.01 µM (inactive)	3.01 µM (inactive)	3.27 µM (inactive)	2.59 µM (inactive)	4.32 µM (inactive)	3.38 µM (inactive)	3.44 µM (inactive)	4.56 µM (inactive)	3.72 µM (inactive)	3.78 µM (inactive)	4.75 µM (inactive)	2.81 µM (inactive)
CCCCCCCCCCCCCCCCOP(=O)(O)OP(=O)(O)OCC1OC(n2ccc(N)nc2=O)CC1O (stereo not given)	> 100 µM (inactive)	> 100 µM (inactive)	> 100 µM (inactive)	> 100 µM (inactive)	> 100 µM (inactive)	> 100 µM (inactive)	> 100 µM (inactive)	> 100 µM (inactive)	> 100 µM (inactive)	> 100 µM (inactive)	> 100 µM (inactive)	> 100 µM (inactive)	> 100 µM (inactive)	> 100 µM (inactive)	> 100 µM (inactive)	> 100 µM (inactive)	> 100 µM (inactive)	> 100 µM (inactive)	> 100 µM (inactive)	> 100 µM (inactive)
COc1cc2c(cc1O)CC1c3c(cc(O)c(OC)c3-2)CCN1C (stereo not given)	> 100 µM (inactive)	> 100 µM (inactive)	> 100 µM (inactive)	> 100 µM (inactive)	> 100 µM (inactive)	> 100 µM (inactive)	> 100 µM (inactive)	> 100 µM (inactive)	62.2 µM (inactive)	> 100 µM (inactive)	> 100 µM (inactive)	> 100 µM (inactive)	> 100 µM (inactive)	> 100 µM (inactive)	91.4 µM (inactive)	> 100 µM (inactive)	> 100 µM (inactive)	> 100 µM (inactive)	> 39.9 µM (inactive)	> 100 µM (inactive)
CC(C)=CCC[C@@H](C)C1=C(Nc2ccccc2F)C(=O)C(C)=C(O)C1=O	5.83 µM (inactive)	14.2 µM (inactive)	0.869 µM (active)	3.92 µM (inactive)	4.45 µM (inactive)	6.47 µM (inactive)	5.82 µM (inactive)	4.81 µM (inactive)	4.74 µM (inactive)	7.6 µM (inactive)	5.65 µM (inactive)	6.78 µM (inactive)	9.95 µM (inactive)	4.54 µM (inactive)	1 µM (active)	4.42 µM (inactive)	9.98 µM (inactive)	5.12 µM (inactive)	10.1 µM (inactive)	10.6 µM (inactive)
O=c1[nH]nc(-c2ccc([N+](=O)[O-])cc2)n1/N=C/c1ccc([N+](=O)[O-])cc1	> 100 µM (inactive)	> 100 µM (inactive)	45 µM (inactive)	30.4 µM (inactive)	43.7 µM (inactive)	> 100 µM (inactive)	> 100 µM (inactive)	71.4 µM (inactive)	74 µM (inactive)	> 100 µM (inactive)	78.7 µM (inactive)	> 100 µM (inactive)	47.9 µM (inactive)	> 100 µM (inactive)	30.4 µM (inactive)	> 100 µM (inactive)	> 100 µM (inactive)	> 100 µM (inactive)	> 100 µM (inactive)	> 100 µM (inactive)
CCC1NC(=O)C1NC(=O)OC (stereo not given)	> 100 µM (inactive)	> 100 µM (inactive)	> 100 µM (inactive)	> 100 µM (inactive)	> 100 µM (inactive)	> 100 µM (inactive)	> 100 µM (inactive)	> 100 µM (inactive)	> 100 µM (inactive)	> 100 µM (inactive)	> 100 µM (inactive)	> 100 µM (inactive)	> 100 µM (inactive)	> 100 µM (inactive)	> 100 µM (inactive)	> 100 µM (inactive)	> 100 µM (inactive)	> 100 µM (inactive)	> 100 µM (inactive)	> 100 µM (inactive)
Oc1cc2c3c(c1)CCCN3CCC2	> 10 µM (inactive)	> 10 µM (inactive)	> 10 µM (inactive)	> 10 µM (inactive)	> 10 µM (inactive)	> 10 µM (inactive)	> 10 µM (inactive)	> 10 µM (inactive)	> 10 µM (inactive)	> 10 µM (inactive)	> 10 µM (inactive)	> 10 µM (inactive)	> 10 µM (inactive)	> 10 µM (inactive)	> 10 µM (inactive)	> 10 µM (inactive)	> 10 µM (inactive)	> 10 µM (inactive)	> 10 µM (inactive)	> 10 µM (inactive)
CC[C@]12C=CCN3CCC4(c5cc([C@@]6(C(=O)OC)CC7CN(CCc8c6[nH]c6ccccc86)CC6CCCCC67)c(OC)cc5N(C)C4[C@](O)(C(=O)OC)C1OC(C)=O)[C@@H]32 (stereo not given in full)	< 0.0252 µM (active)	< 0.01 µM (active)	< 0.01 µM (active)	< 0.01 µM (active)	< 0.01 µM (active)	< 0.01 µM (active)	0.0643 µM (active)	< 0.01 µM (active)	< 0.01 µM (active)	< 0.01 µM (active)	< 0.01 µM (active)	< 0.015 µM (active)	< 0.01 µM (active)	< 0.01 µM (active)	< 0.01 µM (active)	< 0.01 µM (active)	< 0.01 µM (active)	0.743 µM (active)	< 0.01 µM (active)	< 0.01 µM (active)
O=Cc1ccc(-c2cccs2)s1	13.8 µM (inactive)	> 100 µM (inactive)	81.8 µM (inactive)	33.5 µM (inactive)	34.3 µM (inactive)	> 100 µM (inactive)	3.88 µM (inactive)	1.16 µM (inactive)	63.5 µM (inactive)	> 100 µM (inactive)	> 100 µM (inactive)	2.46 µM (inactive)	1.16 µM (inactive)	12.6 µM (inactive)	49.3 µM (inactive)	> 100 µM (inactive)	67.6 µM (inactive)	79.4 µM (inactive)	> 100 µM (inactive)	> 100 µM (inactive)
O=C1c2ccccc2C(=O)N1CC1(C(=O)O)NCCS1(=O)=O (stereo not given)	> 100 µM (inactive)	> 100 µM (inactive)	> 100 µM (inactive)	> 100 µM (inactive)	> 100 µM (inactive)	> 100 µM (inactive)	> 100 µM (inactive)	> 100 µM (inactive)	> 100 µM (inactive)	> 100 µM (inactive)	> 100 µM (inactive)	> 100 µM (inactive)	> 100 µM (inactive)	> 100 µM (inactive)	> 100 µM (inactive)	> 100 µM (inactive)	> 100 µM (inactive)	91.4 µM (inactive)	> 100 µM (inactive)	> 100 µM (inactive)
COc1ccc([C@@]23CCC(=O)C[C@@H]2N(C)CC3)cc1OC	> 100 µM (inactive)	> 100 µM (inactive)	> 100 µM (inactive)	> 100 µM (inactive)	> 100 µM (inactive)	> 100 µM (inactive)	> 100 µM (inactive)	> 100 µM (inactive)	> 100 µM (inactive)	> 100 µM (inactive)	> 100 µM (inactive)	> 100 µM (inactive)	> 100 µM (inactive)	> 100 µM (inactive)	> 100 µM (inactive)	> 100 µM (inactive)	> 100 µM (inactive)	> 100 µM (inactive)	> 100 µM (inactive)	> 100 µM (inactive)
O=S1(=O)CS(=O)(=O)OCCO1	38.4 µM (inactive)	47.3 µM (inactive)	18.5 µM (inactive)	12.9 µM (inactive)	60 µM (inactive)	28.5 µM (inactive)	82.8 µM (inactive)	6.43 µM (inactive)	63.1 µM (inactive)	55.1 µM (inactive)	10.9 µM (inactive)	52.5 µM (inactive)	51.8 µM (inactive)	33.4 µM (inactive)	11.2 µM (inactive)	31.7 µM (inactive)	12.4 µM (inactive)	81.8 µM (inactive)	11.3 µM (inactive)	33.8 µM (inactive)
